Results taken from patent US20090022806A1, “Nanoparticle and polymer formulations for thyroid hormone analogs, antagonists and formulations and uses thereof” (priority 2006, published 2009).

Key:
platelets = assay: Collagen-induced platelet aggregation and secretion in whole blood (impedance); type: cell-based, human; details: 10-100 nM
Text: Platelet aggregation and de-granulation in whole blood using Impedance Technique: The Model 560 Whole-Blood Aggregometer and the associated Aggro-Link Software from the Chrono-Log Corporation were used in this study. Two electrodes are placed in diluted blood and an electrical impulse is sent from one to the other. As the platelets aggregate around the electrodes, the Chrono-Log measures the impedance of the electrical signal in ohms of resistance.
The blood was kept on a rocker to extend the life of the platelets, and experiments were done within 5 hours of phlebotomy.
Procedure: For the control, 500 microliters of whole blood, 500 microliters of 0.9% saline, and a magnetic stir bar were mixed into a cuvette, and heated for five minutes to 37 degrees Celsius. Sub-threshold aggregation was induced with 5 microliters of 1-2 μg/ml Collagen, which the Aggregometer measured for 6-7 minutes. […] Ingerman-Wojenski C, Smith J B, Silver M J. Evaluation of electrical aggregometry: comparison with optical aggregometry, secretion of ATP, and accumulation of radiolabeled platelets. J Lab Clin Med. 1983 January; 101(1):44-52.

[1] = test system: Human dermal micro-vascular endothelial cells (HDMEC); assay: Three-dimensional human micro-vascular endothelial sprouting assay; type: cell-based
Protocol: In Vitro Three-Dimensional Sprout Angiogenesis of Human Dermal Micro-Vascular Endothelial Cells (HDMEC) Cultured on Micro-Carrier Beads Coated with Fibrin: Confluent HDMEC (passages 5-10) were mixed with gelatin-coated Cytodex-3 beads with a ratio of 40 cells per bead. Cells and beads (150-200 beads per well for 24-well plate) were suspended with 5 ml EBM+15% normal human serum, mixed gently every hour for first 4 hours, then left to culture in a CO2 incubator overnight. The next day, 10 ml of fresh EBM+5% HS were added, and the mixture was cultured for another 3 hours. Before experiments, the culture of EC-beads was checked; then 500 ul of PBS was added to a well of 24-well plate, and 100 ul of the EC-bead culture solution was added to the PBS. The number of beads was counted, and the concentration of EC/beads was calculated.
A fibrinogen solution (1 mg/ml) in EBM medium with or without angiogenesis factors or testing factors was prepared. For positive control, 50 ng/ml VEGF+25 ng/ml FGF2 was used. EC-beads were washed with EBM medium twice, and EC-beads were added to fibrinogen solution. The experiment was done in triplicate for each condition. The EC-beads were mixed gently in fibrinogen solution, and 2.5 ul human thrombin (0.05 U/ul) was added in 1 ml fibrinogen solution; 300 ul was immediately transferred to each well of a 24-well plate. The fibrinogen solution polymerizes in 5-10 minutes; after 20 minutes, we added EBM+20% normal human serum+10 ug/ml aprotinin. The plate was incubated in a CO2 incubator. It takes about 24-48 hours for HDMEC to invade fibrin gel and form tubes.
A micro-carrier in vitro angiogenesis assay previously designed to investigate bovine pulmonary artery endothelial cell angiogenic behavior in bovine fibrin gels [Nehls and Drenckhahn, 1995a, b] was modified for the study of human microvascular endothelial cell angiogenesis in three-dimensional ECM environments (FIGS. 1 and 2). Briefly, human fibrinogen, isolated as previously described [Feng et al, 1999], was dissolved in M199 medium at a concentration of 1 mg/ml (pH 7.4) and sterilized by filtering through a 0.22 micron filter. An isotonic 1.5 mg/ml collagen solution was prepared by mixing sterile Vitrogen 100 in 5×M199 medium and distilled water. The pH was adjusted to 7.4 by 1N NaOH. In certain experiments, growth factors and ECM proteins (such as VEGF, bFGF, PDGF-BB, serum, gelatin, and fibronectin) were added to the fibrinogen or collagen solutions. About 500 EC-beads were then added to the 1 mg/ml fibrinogen or 1.5 mg/ml collagen solutions. Subsequently, EC-beads-collagen or EC-beads-fibrinogen suspension (500 EC-beads/ml) was plated onto 24-well plates at 300 ul/well. EC-bead-collagen cultures were incubated at 37° C. to form gel. The gelling of EC-bead-fibrin cultures occurred in less than 5 minutes at room temperature after the addition of thrombin to a final concentration of 0.5 U/ml. After gelation, 1 ml of fresh assay medium (EBM supplemented with 20% normal human serum for HDMEC or EBM supplemented with 10% fetal bovine serum was added to each well. The angiogenic response was monitored visually and recorded by video image capture. Specifically, capillary sprout formation was observed and recorded with a Nikon Diaphot-TMD inverted microscope (Nikon Inc.; Melville, N.Y.), equipped with an incubator housing with a Nikon NP-2 thermostat and Sheldon #2004 carbon dioxide flow mixer. The microscope was directly interfaced to a video system consisting of a Dage-MTI CCD-72S video camera and Sony 12″ PVM-122 video monitor linked to a Macintosh G3 computer. The images were captured at various magnifications using Adobe Photoshop. The effect of angiogenic factors on sprout angiogenesis was quantified visually by determining the number and percent of EC-beads with capillary sprouts. One hundred beads (five to six random low power fields) in each of triplicate wells were counted for each experimental condition. All experiments were repeated at least three times. […]

[2] = hormone 0.1 uM alone, pretreated FGF2 1.25 ng/ml + VEGF […], day 3

## N[C@@H](Cc1cc(I)c(Oc2cc(I)c(O)c(I)c2)c(I)c1)C(=O)O [T4, L-thyroxine]
platelets
  enhancing platelet aggregation and secretion (de-granulation): effective
[1]; 0.01-0.1 μM
  stimulation of angiogenesis: significant (P<0.01) stimulation of angiogenesis
[1]; FGF2 25 ng + VEGF 50 ng, T3 20 ng, T4 23 ng, T4-agarose 23 ng, pre-treated with FGF2 1.25 ng/ml + VEGF […]
  Mean Tube Vessel Length (mm) ± SD: 1.65 ± 0.15 mm
[1]; [2]
  Mean number of Migrated cells ± SD: 182 ± 11
  Mean vessel Length (mm) ± SD: 1.16 ± 0.21 mm
